Experiment [1] has as its system A2058 cells. Kind of experiment: Staining of cells with fluorescein tagged rhamnose probe (FRITC). In kind it is cell-based. How it is done: A2058 cells were coated at low density in a microscope compatible chamber. The cells were washed with HBS^2+ then incubated with FRITC (top concentration of DMSO=2.5%) for 5-15 min at 37° C. The FRITC was removed, the cells washed twice with HBS^2+ and examined under a visible light microscope. The incubation was repeated with 0-100 μM fluorescein-amine, and for 25 and 6 μM FRITC using a 10^3× excess of unlabelled rhamnose.
A fluorescein tagged rhamnose probe (FRITC) was prepared as previously described and used to stain A2058 cells.
FRITC at concentrations from 3-25 μM was incubated with A2058 cells for 15 minutes at 37° C.

The next experiment has as its system RBP bearing cells. The experiment is described as follows: Cell adhesion between RBP bearing cells. The note with it: RBP binds ligand. Type of experiment: cell-based.
For experiment [2], the system named is A2058 cells. The experiment is described as follows: Co-administration of BEC® and rhamnose, cell survival. In kind it is cell-based. Particulars: 5 mM rhamnose, 5000 cells, 5 minutes and 4 days. As for the experimental part: A2058 cells at two different cell densities were treated with BEC® +/−rhamnose and cell survival was monitored after 4 days. The treatments comprised: (i) BEC® only for 4 days (ii) BEC® only for 5 minutes (iii) BEC® and 5 mM rhamnose for 4 days and (iv) BEC® and 5 mM rhamnose for 5 minutes.

Experiment [3] relates to rhamnose binding protein (RBP). Kind of experiment: Dissociation constant of the receptor estimated from the cytotoxicity functions. Particulars: read-out: dissociation constant of RBP when bound to the rhamnose moiety of solamargine. How it is done: Given that the evaluation of the cytotoxicities for different cell lines needed to be conducted using different sized cell populations, it was considered prudent to determine the effect, if any, of cell number on the measured value of LD50. Five cell lines, HT-29, LS174-T, 5637, A431 and MCF-7 were evaluated at four different seeding cell densities. Hs578T and CCD 18Lu were evaluated at three seeding densities and Hs578Bst, both early and late passage cells, were evaluated at two seeding densities.
In order that the full range of cell densities be evaluated with at least one cell line, a 3-day version of the cytotoxicity was developed. The cell lines involved were recalibtrated for the 3-day format. Multiwell plates were seeded on day 1. Cells were treated with BEC® on day 2 and MTT was added twenty four hours later.
Comparing the two fitted functions, two distinct regions are discernable (FIG. 8). […] We estimate that the dissociation constant for this receptor is likely to be of the order of 1.5×10^−6 M.

`C[C@H](O)[C@H](O)[C@@H](O)[C@@H](O)C=O` [rhamnose]: the “inhibition of FRITC staining” value in the experiment with A2058 cells [1] (co-incubation with free rhamnose at 10 mM) is “staining could be inhibited”. In the experiment with RBP bearing cells, the “cell adhesion of RBP bearing cells” value was “inhibited”. Also, the “rhamnose competition with BEC® uptake (protective effect)” value in the experiment with A2058 cells [2] is reported as “affects the amount of BEC® taken up by the cells”.
In the case of `C[C@@H]1CC[C@@]2(NC1)O[C@H]1C[C@H]3[C@@H]4CC=C5C[C@@H](O[C@@H]6O[C@H](CO)[C@@H](O[C@@H]7O[C@@H](C)[C@H](O)[C@@H](O)[C@H]7O)[C@H](O)[C@H]6O[C@@H]6O[C@@H](C)[C@H](O)[C@@H](O)[C@H]6O)CC[C@]5(C)[C@H]4CC[C@]3(C)[C@H]1[C@@H]2C` [solamargine], in experiment [3], the Kd is around 1500 nM.
Fluorescein Rhamnose-ITC [FRITC]: the “fluorescent staining of cells” value in the experiment with A2058 cells [1] (FRITC 3-25 μM, 15 minutes at 37° C.) is on record as “found to fluoresce”.

The values above are taken from patent US7348152B2, “Rhamnose binding protein” (Solbec Pharmaceutical Limited, priority 2002, dated 2008).
